Data on one substance can be found in patent US6887853B2, “Use of geldanamycin and related compounds for treatment of fibrogenic disorders” (The Trustees of Boston University, priority 2000, dated 2005).

The test system of assay [1] is endogenous collagen transcript in mouse 3T3 cells. Put plainly: Northern analysis of endogenous α1(I) collagen message, NIH 3T3 fibroblasts. Conditions: TGF-β alone, 24 hour. The assay is classed as cell-based. Here is the method: FIGS. 7A-7C show fibroblasts subjected to 24-hour treatments with geldanamycin, TGF or both. After 24 hours, total RNA was harvested and subjected to northern analysis using an α1(I) collagen probe. (A) Northern analysis using NIH 3T3 fibroblasts. (B) Northern analysis using primary healthy human dermal fibroblasts. (C) Methylene blue staining of the filter in (B). Numbers represent relative intensities of the lower collagen band after normalizing bands to GAPDH band intensity; The clone corresponding to Hsp90-α was purchased as an EST from Genome Systems. […] Sequencing was performed at the Boston University DNA/Protein Sequencing Core. Northern analysis of Hsp90 to total RNA from scleroderma and healthy fibroblasts was performed as previously described (10). Geldanamycin was a generous gift of the National Cancer Institute. Geldanamycin was dissolved in dimethylsulfoxide (DMSO) and used at a final concentration of 2 μM except where indicated otherwise. DMSO without geldanamycin was added as the carrier control for all experiments using geldanamycin. The chaperone function of Hsp90 is dependent on the hydrolysis of ATP (44). […] Geldanamycin was examined to determine whether its inhibition of Hsp90 affected TGF-β activation of collagen transcription in mouse 3T3 and human dermal fibroblasts. Endogenous collagen message levels were used as a measure of TGF-β signal transduction. […]

The subject of assay [2] is TGF-β-sensitive promoter in the 3TPlux construct. Put plainly: TGF-β-sensitive 3TPlux luciferase reporter in transfected NIH 3T3 cells. The format is cell-based, mouse. Conditions: NIH 3T3, TGF-β by itself, 24 hour. As to the method:
(§1) The latter contains a 4.5 kb fragment of the PN1 promoter driving the luciferase gene. Cells were incubated for 24 hours after transfection, washed 3 times with PBS and then subjected to a 24 hour treatment with geldanamycin, TGF or both, as indicated. Cells were then harvested and luciferase activities determined; Transient transfections were performed using lipofectamine (Gibco BRL) as follows: 10 μg (total) of indicated plasmid DNA was mixed with 30 μl of lipofectamine and 500 μl of serum-free DMEM (Gibco). This mixture was incubated at room temperature for 20 minutes. Ten cm dishes of sub-confluent 3T3 fibroblasts were rinsed with PBS, and 5 ml of serum free DMEM added to each dish. The DNA/lipofectamine mixture was added to each dish and incubated in the 37° CO2 incubator for 4 hours. Ten ml of DMEM with 15% serum was added and plates were incubated overnight. Medium was replaced with 10% serum at 24 hours and extracts of cells were harvested at 48 hours. Cell extracts were obtained using Passive Lysis Buffer (Promega) and assays were performed according to the Promega protocol for pGL3 luciferase vectors. Protein concentrations of all extracts were determined and each luciferase reading is normalized for protein concentration. The 4.7 kb human MMP1 promoter driving luciferase was a gift of Constance Brinckerhoff (Dartmouth Medical School) (36). […]

The next assay deals with PN1 promoter. Put plainly: Protease nexin 1 (PN1) promoter luciferase reporter in transfected NIH 3T3 cells. The format is cell-based, mouse. Conditions: NIH 3T3, TGF-β alone, 24 hour. As to the method: as §1
The test system of assay [3] is Smad DNA-binding activity. Description: Electrophoretic mobility shift assay, Smad binding element (SBE), 3T3 nuclear extracts. The assay is classed as cell-based, mouse. Conditions: 15 minute TGF-β treatment alone. (In general: A gel shift assay detects complexes by their altered migration in electrophoresis.)
Method: (A) Cells were harvested and subjecting to electrophoretic mobility shift analysis using a Smad binding element (SBE). […] Where indicated, extracts were prepared with 100-fold higher levels of cold competitor probe. (B) Cells were subjected to 24 hour treatments with geldanamycin at various concentrations and extracts prepared and bound to control Oct-1-binding duplex oligos to monitor non-specific effects of geldanamycin.
Protein concentrations of extracts were determined using the BCA reagent (Pierce). […] The probes were end-labeled using γ-^32P-ATP and T4 polynucleotide kinase. Electrophoretic mobility shift assays (EMSA) were performed using 5 μg nuclear extract, 1 μl poly dI/dC (1 mg/ml), 0.1 ng of labeled probe (in 1 μl), and buffer G to achieve a final volume of 10 μl. Buffer G consists of 20 mM Hepes (pH 7.6), 100 mM KCl, 0.2 mM EDTA and 20% glycerol. Extracts and oligo were incubated 15 minutes at room temperature before adding loading buffer and running on a non-denaturing gel.
Electrophoretic mobility shift assays were performed to examine whether geldanamycin reduced the level of Smad DNA-binding activity in nuclear extracts. As before, cells were also subjected to TGF-β or TGF-β and geldanamycin together. […]

With TGF-β, the “increase of endogenous collagen transcript level” value is recorded as “approximately 6 fold” in assay [1] (NIH 3T3, absence of serum) and 2 fold in assay [1] (NIH 3T3, presence of serum). For the same substance, in assay [2], the “induction of the activity of the 3TPlux promoter” value is on record as 3.5 fold. In addition, the “effect of TGF-β on the expression of the PN1 promoter” value with PN1 promoter is listed as “little effect”. Further, the “nuclear Smad after TGF-β treatment” value in assay [3] is given as “modest increase”.
